Assay results as given in paper PMC7260283, “The Amino Terminus of LeuT Changes Conformation in an Environment Sensitive Manner” (Neurochemical Research, 2019).

Target: T1, wild type LeuT (Aquifex aeolicus, UniProt O67854)
T1 construct: gene snf; full-length, His-tagged, expressed in E. coli C41(DE3), purified in DDM; plasmid from Eric Gouaux
Experiment: scintillation proximity assay, competition of cold leucine with [3H]leucine, YSi beads
Assay type: binding
Conditions: purified His-tagged protein; competitive with [3H]leucine

KI: 0.0155 ± 0.0024 µM
Compound: CC(C)C[C@H](N)C(=O)O [leucine]
